Reference: patent publication US20100028849A1, “NOVEL PROCESS FOR DEVITALIZED/ACELLULAR TISSUE FOR TRANSPLANTATION” (priority 2006, published 2010)

Key:
[1] = system: human skin (epidermis and dermis intact) tissue cells; experiment: alamarBlue viability assay of human skin exposed to ozone; type: cell-based; settings: 60 minutes of ozone exposure in sterile normal saline with agitation; 5-20 ppm, 4 C to 25 C
Text: This example measured the effect of ozone on human skin. Human skin (epidermis and dermis intact) was exposed to ozone for various lengths of time. Ozone was pumped through an aqueous solution (sterile normal saline) obtaining levels between 5 and 20 ppm at temperatures between 4 C and 25 C. An alamarBlue™ viability assay, which is supplied by Invitrogen Corporation of Carlsbad, Calif., was used to quantify viability of the tissue cells. The alamarBlue™ dye is reduced by metabolic intermediates within a cell; reduction of the dye is then measured spectrophotometrically.
To perform the alamarBlue™ assay, human skin was sectioned into 6 mm diameter discs and placed individually into wells of a 24-well tissue culture plate. To each sample, 10% alamarBlue™ reagent in RPMI-1640 was added. The plate was incubated at 37° C. on an orbital shaker for 4 hours. Each well was then sampled in triplicate to a 96-well assay plate. The absorbance of the plate was measured at 600 nm and 570 nm, where the […]. The absorbencies were then used to calculate the percent reduction of alamarBlue™ dye, as follows: […]

S. epidermidis = experiment: antimicrobial ability of ozone in aqueous solution, plating on agar (CFU); type: cell-based; settings: 5-10 ppm ozone in sterile water; for Final (CFU/mL): initial inoculum 2.1 × 10^8 CFU/mL
Procedure: S. epidermidis was subjected to 5-10 ppm ozone in sterile water, followed by plating the organisms onto agar plates and placing the plates in a 37° C. incubator.

## O=[O+][O-] [Ozone, ozone]
[1]
  viability of the tissue cells (percent reduction of alamarBlue dye): death of the cells within the skin
S. epidermidis; 2.5 min exposed to ozone
  Log Reduction: 8 log
  Final (CFU/mL): 0 CFU/mL
S. epidermidis; 5 min exposed to ozone
  Log Reduction: 8 log
  Final (CFU/mL): 0 CFU/mL
S. epidermidis; 7.5 min exposed to ozone
  Log Reduction: 8 log
  Final (CFU/mL): 0 CFU/mL
S. epidermidis; 10 min exposed to ozone
  Log Reduction: 8 log
  Final (CFU/mL): 0 CFU/mL
S. epidermidis; 20 min exposed to ozone
  Log Reduction: 8 log
  Final (CFU/mL): 0 CFU/mL
S. epidermidis; at 2.5 minutes or longer, total kill of microbes
  log reduction in colony forming units (CFU): 8 log
